One may read the solubility as the concentration that dissolves in the medium under given conditions. Low values mean little dissolved substance, high ones much dissolved substance. The term half-life denotes the time needed for the level to fall by half in the phase considered. Low values mean rapid decline, high ones slow decline.

The values that follow come from patent US5055485A, “Inactivation of viruses in cell- and protein-containing compositions using aryl diol epoxides” (New York Blood Center, Inc., priority 1988, dated 1991).

In brackets after ≈: the same amount, converted by molar mass. Read-outs that look alike come from different tables or passages of the source.

Data set [1] concerns factor VIII. To be noted: background art; cited from earlier work.
In data set [2] the test system is proteinaceous components of the plasma. The following applies: background art; cited from earlier work.
Data set [3] deals with DNA. To be noted: background art; cited from earlier work.
The conditions of data set [4]: background art; cited from earlier work.
Data set [5] has as its system VSV. Briefly: microbe, parasite or virus in culture. It counts as cell-based, vesicular stomatitis virus. The following applies: for log reduction at 10 µM: Vesicular stomatitis virus, 6 h.
Data set [6] has as its system Factor IX. Put plainly: Plasma protein functional activity: Factor IX. The format is biochemical. To be noted: human plasma, 10 μm, 6 hours, 24° C.
Data set [7] has as its system AHF. Put plainly: Plasma protein functional activity: AHF. The format is biochemical. The following applies: human plasma, 10 μm, 6 hours, 24° C.
For data set [8], the system named is Anti-HBsAg. Briefly: Plasma protein functional activity: Anti-HBsAg titer. It counts as biochemical. To be noted: human plasma, 10 μm, 6 hours, 24° C.
Data set [9] has as its system A549 cells.
The nature of data set [10]: Solubility in aqueous media / water. The format is physicochemical.
Data set [11] concerns Haptoglobin. Put plainly: Plasma protein: haptoglobin. The following applies: human plasma, 10 μm, 6 hours, 24° C. The format is biochemical.
Data set [12] has as its system selected plasma proteins. Briefly: Functional activity of selected plasma proteins, overall. The format is biochemical. To be noted: human plasma, 10 μm, 6 hours, 24° C.
In data set [13] the test system is VSV. Put plainly: microbe, parasite or virus in culture. To be noted: Vesicular stomatitis virus, A549, read-out: virus kill (cell-associated VSV). The format is cell-based.
Data set [14] relates to Fibrinogen. Put plainly: Plasma protein functional activity: fibrinogen clottability. The format is biochemical. To be noted: human plasma, 10 μm, 6 hours, 24° C.
Data set [15] relates to washed human red blood cells. Put plainly: Red cell structural and functional integrity. To be noted: conditions of Example 2.
Data set [16] relates to VSV. It counts as cell-based, vesicular stomatitis virus.
A short description of data set [17]: Hydrolysis in aqueous medium. It counts as physicochemical. To be noted: iscove's medium 10% fbs; Iscove's medium containing 10% fetal bovine serum.
For data set [18], the system named is Vesicular stomatitis virus (VSV). It counts as cell-based.
Data set [19] relates to viruses. To be noted: background art; cited from earlier work.

On to `O=C1CCO1` [Beta-propiolactone, beta-propiolactone], for which the “loss of factor VIII content of plasma” value in data set [1] is listed as “more than half of the factor VIII content of plasma is lost”. Further, the “denaturation of plasma proteins” value in [2] is on record as “substantially denaturate valuable plasma proteins”.

Take `CN(C)c1ccc2cc3ccc(N(C)C)cc3nc2c1` [acridine orange]: the “binding to DNA” value in [3] was “bind extremely well to DNA”. Besides, the “water solubility (in words)” value in [4] is “water soluble”.

For the compound `Nc1ccc2cc3ccc(N)cc3nc2c1` [proflavin], in data set [3], the “binding to DNA” value is recorded as “bind extremely well to DNA”. Besides, the “water solubility (in words)” value in data set [4] is given as “water soluble”.

Regarding `O[C@H]1[C@H]2O[C@H]2c2c(cc3ccc4cccc5ccc2c3c45)[C@@H]1O` (relative stereo) [BAPDE, trans-7,8-dihydroxy [anti] 9,10 epoxy-7,8,9,10-tetrahydro benzo[a]pyrene], the “VSV Infectivity following treatment with BAPDE” value in [5] is below -0.5. Moreover, the log reduction at 10 µM in data set [5] (read-out: virus inactivation) is above 4.5. Besides, the log reduction at 10 µM in data set [5] (read-out: VSV Infectivity change: log10 Kill) is above 4.6. For the same compound, in data set [6], the “Factor IX Recovery (%)” value is recorded as 100%. In addition, the “Factor IX following treatment with BAPDE” value in data set [6] (no treatment 0.9) was 0.9 units/ml. For the same compound, in data set [7], the “AHF Recovery (%)” value is recorded as 79%. In [7] (no treatment 0.70), the “AHF following treatment with BAPDE” value amounted to 0.55 units/ml. Besides, the “Anti-HBsAg Recovery (%)” value in [8] stood at 110%. Moreover, the “Anti-HBsAg following treatment with BAPDE” value in [8] (no treatment 0.50) amounted to 0.55 titer. The “toxicity to A549 cells” value in data set [9] is “Neither BAPDE nor the solvent in which it was dissolved (e.g., tetrahydroturan) were toxic to A549 cells”. For the same compound, in data set [10], the solubility lay within 1 to 10 µM (≈ 0.302 to 3.02 µg/mL). Besides, the “Haptoglobin Recovery (%)” value in data set [11] is reported as 97%. Besides, in data set [11] (no treatment 175), the “Haptoglobin following treatment with BAPDE” value was 170 mg/dL. In addition, the “loss of protein functional activity (in words)” value in [12] is listed as “without significant loss of protein functional activity”. In addition, the log reduction at 3 µM in data set [13] is above 5.5. Moreover, the “Fibrinogen clottability Recovery (%)” value in [14] came out at 100%. In addition, the “Fibrinogen clottability following treatment with BAPDE” value in data set [14] (no treatment clottable) is “clottable”. In data set [15], the “2,3 diphosphoglycerate levels” value was “within the normal range”; the ATP levels result was “within the normal range”; the “Red cell structural and functional integrity” value is listed as “not compromised”; the hemoglobin content result is reported as “within the normal range”. For the same compound, the osmotic fragility result in [15] is reported as “within the normal range”. Further, in data set [16], the “VSV inactivation in the presence of red cells (in words)” value is reported as “reduced in the presence of red cells” and the virus titer reduction entry is on record as “at least 3 logs”. This compound also showed a half-life in data set [17] of around 30 min. The virus inactivated in data set [18] is recorded as above 5 logs.

Regarding `O=CCCCC=O` [glutaraldehyde], the “viral inactivation and effect on cells (in words)” value in data set [19] is “inactivates viral infectivity, but fixes cells”. In data set [2], the “denaturation of plasma proteins” value is “denatured the valuable proteinaceous components of the plasma”.

For `C=O` [formaldehyde], in [2], the “denaturation of plasma proteins” value is on record as “denatured the valuable proteinaceous components of the plasma”.

In the case of `OCl` [sodium hypochlorite], in data set [2], the “denaturation of plasma proteins” value was “denatured the valuable proteinaceous components of the plasma”.
